One may read the inhibition as the drop in the measured response relative to a control, in per cent.

This experiment in a line: Antiproliferative activity against VEGF-stimulated HUVEC cells assessed as reduction in cell viability at 10 nM preincubated for 1 hr followed by addition of VEGF measured after 72 hrs by MTT assay. In kind it is functional. To be noted: Homo sapiens.
Consider `O=C1C[C@H](C(=O)Nc2cccc(Oc3ccc4c(/C=C/c5ccccc5)n[nH]c4c3)c2)NC(=O)N1`, for which the inhibition at 0.01 µM was -6%.

Regarding `O=C(Nc1cccc(C(=O)c2ccc3c(/C=C/c4ccccc4)n[nH]c3c2)c1)C(=O)C1=CCCCC1`, the inhibition at 0.01 µM stood at 45%.

In the case of `CC(C)=CC1C(C(=O)Nc2cccc(Nc3ccc4c(/C=C/c5ccccc5)n[nH]c4c3)c2)C1(C)C` (configuration not stated), the inhibition at 0.01 µM was determined as 16%.

As to `CCCN(CCC)CC(=O)Nc1cccc(C(=O)c2ccc3c(/C=C/c4ccccc4)n[nH]c3c2)c1`, the inhibition at 0.01 µM is -2%.

Turning to `Cc1ccc(CCC(=O)Nc2cccc(Nc3ccc4c(/C=C/c5ccccc5)n[nH]c4c3)c2)cc1`, the inhibition at 0.01 µM stood at 29%.

Turning to `CCO/C(C)=C/C(=O)Nc1cccc(Nc2ccc3c(/C=C/c4ccccc4)n[nH]c3c2)c1`, the inhibition at 0.01 µM is 85%.

For the compound `O=C(CC1CC2CCC1C2)Nc1cccc(Oc2ccc3c(/C=C/c4ccccc4)n[nH]c3c2)c1` (configuration not stated), the inhibition at 0.01 µM came out at 78%.

On to `C[C@@H](CC(=O)Nc1cccc(Oc2ccc3c(/C=C/c4ccccc4)n[nH]c3c2)c1)c1ccccc1`, for which the inhibition at 0.01 µM turned out to be 42%.

As to `CC1(C)OC(=O)[C@H](CC(=O)Nc2cccc(Nc3ccc4c(/C=C/c5ccccc5)n[nH]c4c3)c2)O1`, the inhibition at 0.01 µM came to 20%.

With `C[C@@]12C[C@H]3C[C@H]1C[C@@]3(C(=O)Nc1cccc(C(=O)c3ccc4c(/C=C/c5ccccc5)n[nH]c4c3)c1)C2`, the inhibition at 0.01 µM was -1%.

Consider `C[C@@H]1[C@H](C)[C@H](C)C[C@@H]1C(=O)Nc1cccc(C(=O)c2ccc3c(/C=C/c4ccccc4)n[nH]c3c2)c1`, for which the inhibition at 0.01 µM came to 5%.

Turning to `CC(C)[C@@H](O)C(=O)Nc1cccc(C(=O)c2ccc3c(/C=C/c4ccccc4)n[nH]c3c2)c1`, the inhibition at 0.01 µM came to 33%.

Take `Cc1cc(C(=O)Nc2cccc(Nc3ccc4c(/C=C/c5ccccc5)n[nH]c4c3)c2)n[nH]1`: the inhibition at 0.01 µM stood at 86%.

Take `CC(C)(C)[C@@H](O)C(=O)Nc1cccc(Nc2ccc3c(/C=C/c4ccccc4)n[nH]c3c2)c1`: the inhibition at 0.01 µM came out at 10%.

`CN(C)CCCC(=O)Nc1cccc(Nc2ccc3c(/C=C/c4ccccc4)n[nH]c3c2)c1`: the inhibition at 0.01 µM was determined as 30%.

Take `O=C1C[C@H](C(=O)Nc2cccc(Nc3ccc4c(/C=C/c5ccccc5)n[nH]c4c3)c2)NC(=O)N1`: the inhibition at 0.01 µM was found to be 17%.

Regarding `O=C(c1cccc(NC(=O)C(O)c2ccccc2)c1)c1ccc2c(/C=C/c3ccccc3)n[nH]c2c1` (configuration not stated), the inhibition at 0.01 µM turned out to be 3%.

On to `O=C(Cn1ccc2ccccc21)Nc1cccc(C(=O)c2ccc3c(/C=C/c4ccccc4)n[nH]c3c2)c1`, for which the inhibition at 0.01 µM was -11%.

`COc1ccc(C#N)c(C(=O)Nc2cccc(C(=O)c3ccc4c(/C=C/c5ccccc5)n[nH]c4c3)c2)c1`: the inhibition at 0.01 µM was -20%.

On to `CC(C)[C@@H](O)C(=O)Nc1cccc(Nc2ccc3c(/C=C/c4ccccc4)n[nH]c3c2)c1`, for which the inhibition at 0.01 µM worked out at 3%.

`O=C(Nc1cccc(Oc2ccc3c(/C=C/c4ccccc4)n[nH]c3c2)c1)C(=O)C1=CCCCC1`: the inhibition at 0.01 µM stood at 57%.

Consider `O=C(Nc1cccc(Nc2ccc3c(/C=C/c4ccccc4)n[nH]c3c2)c1)c1cc(=O)[nH]c(=O)[nH]1`, for which the inhibition at 0.01 µM was found to be 12%.

Turning to `CC(C)C(=O)Nc1cccc(Nc2ccc3c(/C=C/c4ccccc4)n[nH]c3c2)c1`, the inhibition at 0.01 µM came out at 24%.

With `Cc1nc(S)sc1CC(=O)Nc1cccc(Oc2ccc3c(/C=C/c4ccccc4)n[nH]c3c2)c1`, the inhibition at 0.01 µM came to 45%.

With `CC1(C)C(C(=O)Nc2cccc(Nc3ccc4c(/C=C/c5ccccc5)n[nH]c4c3)c2)C1(C)C`, the inhibition at 0.01 µM was 25%.

On to `CC(C)CC(O)C(=O)Nc1cccc(Nc2ccc3c(/C=C/c4ccccc4)n[nH]c3c2)c1` (configuration not stated), for which the inhibition at 0.01 µM came to 25%.

In the case of `O=C(Nc1cccc(Nc2ccc3c(/C=C/c4ccccc4)n[nH]c3c2)c1)C1CC2CC(O)C1C2` (configuration not stated), the inhibition at 0.01 µM is -20%.

Turning to `O=C(CC1=CCCCC1)Nc1cccc(Oc2ccc3c(/C=C/c4ccccc4)n[nH]c3c2)c1`, the inhibition at 0.01 µM was 92%.

Regarding `CC(=O)N1CCC[C@@H]1C(=O)Nc1cccc(Nc2ccc3c(/C=C/c4ccccc4)n[nH]c3c2)c1`, the inhibition at 0.01 µM is -5%.

Consider `O=C(Nc1cccc(C(=O)c2ccc3c(/C=C/c4ccccc4)n[nH]c3c2)c1)c1ccc(=O)oc1`, for which the inhibition at 0.01 µM was -62%.

With `CN1CC(C(=O)Nc2cccc(Oc3ccc4c(/C=C/c5ccccc5)n[nH]c4c3)c2)CC1=O` (configuration not stated), the inhibition at 0.01 µM stood at 24%.

For `O=C(Cn1ccc2ccccc21)Nc1cccc(Nc2ccc3c(/C=C/c4ccccc4)n[nH]c3c2)c1`, the inhibition at 0.01 µM is -7%.

For the compound `CN1CC(C(=O)Nc2cccc(Nc3ccc4c(/C=C/c5ccccc5)n[nH]c4c3)c2)CC1=O` (configuration not stated), the inhibition at 0.01 µM was 20%.

Turning to `C/C(=C\C(=O)Nc1cccc(C(=O)c2ccc3c(/C=C/c4ccccc4)n[nH]c3c2)c1)c1ccccc1C`, the inhibition at 0.01 µM was determined as 99%.

Consider `O=C(Nc1cccc(Oc2ccc3c(/C=C/c4ccccc4)n[nH]c3c2)c1)C1CCOC1` (configuration not stated), for which the inhibition at 0.01 µM came out at 40%.

In the case of `O=C1CCC(C(=O)Nc2cccc(Oc3ccc4c(/C=C/c5ccccc5)n[nH]c4c3)c2)CC1`, the inhibition at 0.01 µM is 59%.

As to `Cc1cc(C(=O)Nc2cccc(Oc3ccc4c(/C=C/c5ccccc5)n[nH]c4c3)c2)n[nH]1`, the inhibition at 0.01 µM worked out at 150%.

For `O=C(CCC(=O)N1CCCC1)Nc1cccc(Oc2ccc3c(/C=C/c4ccccc4)n[nH]c3c2)c1`, the inhibition at 0.01 µM amounted to 48%.

Take `C[C@@H](CC(=O)Nc1cccc(Nc2ccc3c(/C=C/c4ccccc4)n[nH]c3c2)c1)c1ccccc1`: the inhibition at 0.01 µM is 27%.

As for `Cc1cc(C(=O)Nc2cccc(Nc3ccc4c(/C=C/c5ccccc5)n[nH]c4c3)c2)oc(=O)c1`, the inhibition at 0.01 µM was -8%.

In the case of `CC(=O)NC(C)(C)CC(=O)Nc1cccc(Oc2ccc3c(/C=C/c4ccccc4)n[nH]c3c2)c1`, the inhibition at 0.01 µM stood at 42%.

For the compound `CC(C)CC(=O)C(=O)Nc1cccc(C(=O)c2ccc3c(/C=C/c4ccccc4)n[nH]c3c2)c1`, the inhibition at 0.01 µM came to 81%.

Turning to `CC(=O)N1CCC(C(=O)Nc2cccc(C(=O)c3ccc4c(/C=C/c5ccccc5)n[nH]c4c3)c2)CC1`, the inhibition at 0.01 µM was found to be 33%.

On to `CO[C@H](C(=O)Nc1cccc(Nc2ccc3c(/C=C/c4ccccc4)n[nH]c3c2)c1)c1ccccc1`, for which the inhibition at 0.01 µM was determined as 80%.

Take `O=C(c1cccc(NC(=O)C2CC3CC(O)C2C3)c1)c1ccc2c(/C=C/c3ccccc3)n[nH]c2c1` (configuration not stated): the inhibition at 0.01 µM is 64%.

Consider `Cc1cc(C(=O)Nc2cccc(Nc3ccc4c(/C=C/c5ccccc5)n[nH]c4c3)c2)nn1C`, for which the inhibition at 0.01 µM stood at 95%.

On to `O=C(Nc1cccc(Oc2ccc3c(/C=C/c4ccccc4)n[nH]c3c2)c1)c1cc(=O)cco1`, for which the inhibition at 0.01 µM is 18%.

Regarding `O=C1NCC(C(=O)Nc2cccc(Oc3ccc4c(/C=C/c5ccccc5)n[nH]c4c3)c2)N1` (configuration not stated), the inhibition at 0.01 µM worked out at 40%.

As for `O=C(Cc1cc(F)cc(F)c1)Nc1cccc(Oc2ccc3c(/C=C/c4ccccc4)n[nH]c3c2)c1`, the inhibition at 0.01 µM came to 80%.

`O=C(Cc1cc(F)ccc1F)Nc1cccc(Oc2ccc3c(/C=C/c4ccccc4)n[nH]c3c2)c1`: the inhibition at 0.01 µM was determined as 91%.

Regarding `O=C(Nc1cccc(Nc2ccc3c(/C=C/c4ccccc4)n[nH]c3c2)c1)C1CC2C=CCC(C2)C1` (configuration not stated), the inhibition at 0.01 µM was -17%.

Consider `O=C(Nc1cccc(Oc2ccc3c(/C=C/c4ccccc4)n[nH]c3c2)c1)C1CC2CC(O)C1C2` (configuration not stated), for which the inhibition at 0.01 µM was determined as 38%.

Take `O=C1CCC(C(=O)Nc2cccc(C(=O)c3ccc4c(/C=C/c5ccccc5)n[nH]c4c3)c2)CC1`: the inhibition at 0.01 µM stood at 10%.

For the compound `O=C(Cn1ccc2ccccc21)Nc1cccc(Oc2ccc3c(/C=C/c4ccccc4)n[nH]c3c2)c1`, the inhibition at 0.01 µM was found to be 52%.

Consider `CC(C)CC(O)C(=O)Nc1cccc(C(=O)c2ccc3c(/C=C/c4ccccc4)n[nH]c3c2)c1` (configuration not stated), for which the inhibition at 0.01 µM is 47%.

With `O=C(CCN1CCCCC1)Nc1cccc(Oc2ccc3c(/C=C/c4ccccc4)n[nH]c3c2)c1`, the inhibition at 0.01 µM came to 52%.

As for `Cc1nc(S)sc1CC(=O)Nc1cccc(C(=O)c2ccc3c(/C=C/c4ccccc4)n[nH]c3c2)c1`, the inhibition at 0.01 µM turned out to be 24%.

For the compound `Cc1cc(C(=O)Nc2cccc(Oc3ccc4c(/C=C/c5ccccc5)n[nH]c4c3)c2)c(C)[nH]1`, the inhibition at 0.01 µM turned out to be 52%.

With `O=C(/C=C/C(=O)Nc1cccc(C(=O)c2ccc3c(/C=C/c4ccccc4)n[nH]c3c2)c1)NCC1CC1`, the inhibition at 0.01 µM worked out at 3%.

Consider `O=C(Nc1cccc(Oc2ccc3c(/C=C/c4ccccc4)n[nH]c3c2)c1)c1ccc(=O)oc1`, for which the inhibition at 0.01 µM was 5%.

Take `O=C(Cc1ccccc1)C(=O)Nc1cccc(Nc2ccc3c(/C=C/c4ccccc4)n[nH]c3c2)c1`: the inhibition at 0.01 µM was 11%.

As for `O=C(c1cccc(NC(=O)C2CC3C=CC2CC3)c1)c1ccc2c(/C=C/c3ccccc3)n[nH]c2c1` (configuration not stated), the inhibition at 0.01 µM was determined as 42%.

On to `O=C(Nc1cccc(Oc2ccc3c(/C=C/c4ccccc4)n[nH]c3c2)c1)c1cc(=O)[nH]c(=O)[nH]1`, for which the inhibition at 0.01 µM is 90%.

Consider `CC1(C)C(C(=O)Nc2cccc(Oc3ccc4c(/C=C/c5ccccc5)n[nH]c4c3)c2)C1(C)C`, for which the inhibition at 0.01 µM is 71%.

On to `CC(=O)N1CCCC1C(=O)Nc1cccc(Oc2ccc3c(/C=C/c4ccccc4)n[nH]c3c2)c1` (configuration not stated), for which the inhibition at 0.01 µM was 19%.

Take `O=C(Nc1cccc(Nc2ccc3c(/C=C/c4ccccc4)n[nH]c3c2)c1)C1C[C@H]2C=C[C@H]1C2` (some centres not stated): the inhibition at 0.01 µM came out at 5%.

As for `CN(C)C(=S)SCC(=O)Nc1cccc(Oc2ccc3c(/C=C/c4ccccc4)n[nH]c3c2)c1`, the inhibition at 0.01 µM was determined as 70%.

On to `O=C(Nc1cccc(Nc2ccc3c(/C=C/c4ccccc4)n[nH]c3c2)c1)c1cccc2cc[nH]c12`, for which the inhibition at 0.01 µM turned out to be 94%.

In the case of `C/C(=C\C(=O)Nc1cccc(Nc2ccc3c(/C=C/c4ccccc4)n[nH]c3c2)c1)c1ccccc1C`, the inhibition at 0.01 µM stood at 75%.

For `CN1CSCCC1C(=O)Nc1cccc(Nc2ccc3c(/C=C/c4ccccc4)n[nH]c3c2)c1` (configuration not stated), the inhibition at 0.01 µM came out at 0%.

Turning to `O=C(Nc1cccc(Nc2ccc3c(/C=C/c4ccccc4)n[nH]c3c2)c1)C(=O)C1=CCCCC1`, the inhibition at 0.01 µM stood at 23%.

As to `Cn1cnc(CC(=O)Nc2cccc(C(=O)c3ccc4c(/C=C/c5ccccc5)n[nH]c4c3)c2)c1`, the inhibition at 0.01 µM amounted to 31%.

Values taken from ChEMBL document CHEMBL3880421, “Indazole compounds and pharmaceutical compositions for inhibiting protein kinases, and methods for their use” (2003).
